From patent US10959966B2, “Compositions and methods for modulating HEXM1 expression” (CASE WESTERN RESERVE UNIVERSITY, priority 2014, dated 2021) come the findings set out here.

The assay deals with HEXIM1 expression in LNCaP prostate cancer cells. The assay can be described thus: HEXIM1 expression by western blot in LNCaP cells treated with HMBA analogs. It is filed as cell-based. The method, then:
FIGS. 2(A-B) illustrate Western blots and a graph showing the effect of HMBA analogs on HEXIM1 expression. LNCaP cells were treated with vehicle, HMBA (5 mM) and its analogs at 500 μM for 24 h. Level of HEXIM1 (upper panel) and β-actin (lower panel) was analyzed by Western blot of cell extracts with HEXIM1 antibody and β-actin antibody respectively. The bands of HEXIM1 were quantified using ImageJ (NIH) and normalized to β-actin. The results are the representative of three independent experiments.
FIGS. 3(A-B) illustrate Western blots and a graph showing lower concentration of HMBA analogs on HEXIM1 expression. LNCaP cells were treated with vehicle, HMBA (5 mM) and identified analogs at 100 μM for 24 h. Level of HEXIM1 (upper panel) and β-actin (lower panel) was analyzed by Western blot of cell extracts with HEXIM1 antibody and β-actin antibody respectively. The bands of HEXIM1 were quantified using ImageJ (NIH) and normalized to β-actin. The results are the representative of three independent experiments.
FIGS. 4(A-B) illustrate Western blots and a graph showing dose-dependent study of compound 4a1 and HMBA on HEXIM1 expression. Level of HEXIM1 (upper panel) and β-actin (lower panel) was analyzed by Western blot of cell extracts with HEXIM1 antibody and β-actin antibody respectively.
HMBA analogs described herein can be synthesized based on the HMBA scaffold and then selected for their ability to induce HEXIM1 expression in an in vitro cell assay. For example, the synthesized HMBA analogs can be administered to cells, such as LNCaP prostate cancer cells, and the level of HEXIM1 in such cells can be measured using western blot analyses. The level of HEXIM1 expression of cells that are treated with a potential HMBA analog can be compared to control cells treated without the HMBA analog or with HMBA. Control cells (untreated or treated with HMBA) can be assigned a relative HEXIM1 expression value. Induction or promotion of HEXIM1 expression is achieved when the HEXIM1 expression relative to the control is increased at least about 1%, 5%, 10%, 15%, 20%, 30%, 50%, 75%, 100%, 200%, or more.
The synthesis of the symmetrical and unsymmetrical derivatives is described in Scheme 1 and 2, respectively. For the symmetrical analogs, moieties A and C were kept identical. Besides the acetyl group of HMBA, methanesulfonyl group, propionyl group or butyryl group were introduced. In addition, a bulky benzoyl group was introduced. The active proton in the amide moiety was replaced with methyl group to generate a series of analogs with lower solubility. For the moiety B, various linkers such as 1,3-propylene, […] 1,4-cyclohexylene, 1,4-phenylene-bis(methylene), 1,4-cyclohexylene-bis(methylene) were tested for optimization. For the unsymmetrical analogs, the A and B moieties were kept the same as HMBA while the C moiety was modified with aryl or alkyl amide. A total of 32 compounds were synthesized, and these compounds were examined for their potency to induce HEXIM1 in LNCaP prostate cancer cells. HMBA (5 mM) was used as a positive control.
Therefore, these three compounds were screened at lower concentrations.
On the technique in general: A western blot detects proteins with antibodies after separation by electrophoresis.

Consider `COc1ccc(CC(=O)NCCCCCCNC(C)=O)cc1` [Compound 4a1], for which the “HEXIM1 expression compared to the vehicle treatment (cutoff 2.5 fold)” value (LNCaP cells, analogs at 500 μM, 24 h, western blot normalized to β-actin) was “did not reach the cutoff”. Moreover, under “western blot, FIG. 4”, the “Dose-dependent study on HEXIM1 expression” value is “dose-dependently induced HEXIM1 expression”.
